The text below walks through data of patent US11213546B2, “Methods to mobilize tissue resident cells for adoptive t cell therapy” (Emory University, priority 2017, dated 2022).

The structures appear in SMILES notation.

The test system of the test is circulating CD8+ TSP cells and CD34+ SP+ HSCs. The note with it: human peripheral blood. From the text:
Peripheral blood mononuclear cells (PBMCs) from healthy donors were isolated from buffy coats purchased from New York Blood Center. Gut T cells were obtained from uninvolved intestine in patients undergoing surgery for diverticular disease or gut biopsies. Bone marrow aspirates were obtained from patients with cancer undergoing diagnostic bone marrow biopsies. In some patients, blood samples were collected before and after stem cell mobilization protocol with plerixafor. […] The cells were then washed in ice-cold Hoechst wash buffer and analyzed with BD LSR-II containing UV laser.

On to `c1cc(CN2CCCNCCNCCCNCC2)ccc1CN1CCCNCCNCCCNCC1` [plerixafor, Plerixafor], for which the “circulating CD8+ TSP cells” value (baseline vs after mobilization, within 24 hours of injection, n=6) is “marked increase”. The “mobilization of CD34+ SP+ HSCs” value (concurrent with the CD8+ TSP increase) is “mobilization”.
